Reference: patent US12673050B2, “Compositions and their use for the treatment of A1-antitrypsin deficiency” (Centessa Pharmaceuticals (UK) Limited, priority 2021, dated 2026)

Assays:
human Z A1AT = human Z A1AT (Homo sapiens, UniProt P01009, E366K); assay: A1AT cell secretion assay using HEK-Z cells (ELISA); type: cell-based; parameters: expressed in transfected cells; host or cells: HEK-Z cells (HEK-EBNA with Z A1AT plasmid); settings: HEK-Z cells, 10, 33, 100 and 333 nM, 48 h
Method: HEK-Z cells, a human embryonic kidney cell line stably transfected with the human Z A1AT gene, were plated into 96 well plates (3.0×10^5 cells/ml with 200 μl of media/well) overnight at 37° C. in a humidified atmosphere containing 5% CO2. Following incubation cells were washed with 200 μl serum-free media three times and media was replaced with treatments in quadruplicate using serum-free media containing vehicle, 10 μM suberanilohydroxamic acid (SAHA), (S)-1-((2-(trifluoromethyl)phenyl)sulfonyl)piperidine-3-carboxylic acid or (R)-1-((2-(trifluoromethyl)phenyl)sulfonyl)piperidine-3-carboxylic acid (at concentrations of 10, 33, 100 and 333 nM) for 48 h in a 37° C. incubator in a final volume of 200 μl. […]
(§1) Briefly, a 96 well plate was coated with human A1AT capture antibody overnight at room temperature (1:180 dilution from stock, 100 μl final volume/well). […] After which, 50 μl stop solution (2M H2SO4) was added and optical density (OD) of each well was read at 450 nm with 570 nm blank subtracted from each well using a microplate reader. A 4 parameter logistic curve was constructed using GraphPad Prism 7 and A1AT concentrations were determined in each sample by interpolation from a standard curve and multiplying by the appropriate dilution factor.
(§2) The amount of human A1AT secreted from transfected HEK-EBNA cells into the media was measured by ELISA. […]

human Siiyama A1AT = target: T1, human Siiyama A1AT (Homo sapiens, UniProt P01009, S77F); assay: A1AT cell secretion assay using HEK-Siiyama cells (ELISA); type: cell-based; settings: 1 or 10 μM, 48 h
T1 construct: expressed in transfected cells; host or cells: HEK-Siiyama cells (HEK-EBNA with Siiyama A1AT plasmid)
Method: HEK-Siiyama cells, a human embryonic kidney cell line stably transfected with the Siiyama A1AT gene, were plated into 96 well plates (3.0×10^5 cells/ml with 200 μl of media/well) overnight at 37° C. in a humidified atmosphere containing 5% CO2. Following incubation cells were washed with 200 μl serum-free media three times and media was replaced with serum-free media containing vehicle, 10 μM suberanilohydroxamic acid (SAHA), (S)-1-((2-(trifluoromethyl)phenyl)sulfonyl)piperidine-3-carboxylic acid (at 1 or 10 μM) or (R)-1-((2-(trifluoromethyl)phenyl)sulfonyl)piperidine-3-carboxylic acid (at 1 or 10 μM) in replicates of eight for 48 h in a 37° C. incubator in a final volume of 200 μl. At the end of the incubation step the supernatants were removed from the wells, centrifuged at 1000×g at 4° C. for 10 min and were assayed for human A1AT levels by ELISA (Human Serpin A1/α1-antitrypsin duo set ELISA, R& D Systems, DY1268) per manufacturer's instructions.
as §1, with “volume/well). The capture antibody was then removed and wells washed three times with 300 μl wash buffer (0.05% Tween 20 in PBS) and then 200 μl reagent diluent (25% Tween 20 in PBS) was incubated in each well for 1 h at room temperature. Diluted samples, standards (125, 250, 500, 1000, 2000, 4000 and 8000 pg/ml A1AT) or blanks were then added to each well in duplicate and the plates were covered with a plate sealer and left at room temperature for 2 h.” for “volume/well).”
as §2

[1] = Pharmacokinetics in mice (blood, UPLC-MS/MS); type: in vivo, mouse; settings: for Cmax / AUC / AUC(0-inf) / half-life / clearance / Vd: mouse, whole blood, male C57Bl/6 mice, blood; for Cmax: po, orally 10 mg/kg by gavage; for AUC / AUC(0-inf) / half-life / clearance / Vd: intravenously 2 mg/kg or orally 10 mg/kg; for half-life: read-out: Half-life in blood (t1/2) (converted); for clearance: read-out: Observed clearance; for Vd: read-out: Volume of distribution (Vz)
Method: (§3) (S)-1-((2-(trifluoromethyl)phenyl)sulfonyl)piperidine-3-carboxylic acid was administered to male C57BI/6 mice intravenously (2 mg/kg) or orally (10 mg/kg) by gavage. Whole blood diluted with water was prepared from these dosed animals over a time course up to 24 hours post dose to allow blood concentrations of drug to be measured by UPLC-MS/MS.
as §3, with “(R)-1-((2-(trifluoromethyl)phenyl)sulfonyl)piperidine-3-carboxylic” for “(S)-1-((2-(trifluoromethyl)phenyl)sulfonyl)piperidine-3-carboxylic”

hERG = hERG (Homo sapiens, UniProt Q12809); assay: hERG channel inhibition, Patchliner automated patch clamp; type: cell-based; settings: human; at 100 μM
Method: (§4) (S)-1-((2-(trifluoromethyl)phenyl)sulfonyl)piperidine-3-carboxylic acid was tested for inhibition of cardiac potassium (hERG) channels using the Patchliner automated patch clamp. 6-Point concentration-response curves were generated using half-log serial dilutions from a maximum final test concentration of 100 μM. IC50 values were obtained from a 4-parameter logistic fit of the concentration-response data. […] Reference compound values were consistent with those presented in the literature (Elkins et al., 2013 J. Pharm. Tox. Meth. 68:11-122).

[2] = target: cardiac potassium (hERG) channels (Homo sapiens, UniProt Q12809); assay: as above; type: cell-based; settings: 6-point curve, maximum 100 μM
Method: as §4

Sequence of human Z A1AT (P01009 25-418 E366K): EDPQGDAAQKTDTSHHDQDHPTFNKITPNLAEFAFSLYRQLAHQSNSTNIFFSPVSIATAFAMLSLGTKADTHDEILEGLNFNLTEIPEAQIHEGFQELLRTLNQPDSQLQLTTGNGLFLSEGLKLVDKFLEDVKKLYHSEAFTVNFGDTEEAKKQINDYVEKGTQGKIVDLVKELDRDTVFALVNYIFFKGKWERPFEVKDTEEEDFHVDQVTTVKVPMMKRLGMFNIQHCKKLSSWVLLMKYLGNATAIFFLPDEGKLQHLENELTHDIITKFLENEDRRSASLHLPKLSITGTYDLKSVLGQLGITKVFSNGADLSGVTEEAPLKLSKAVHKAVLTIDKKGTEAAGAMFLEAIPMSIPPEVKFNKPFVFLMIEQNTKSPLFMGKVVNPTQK
T1 sequence (P01009 25-418 S77F): as the sequence (P01009 25-418 E366K) above, with S53F, K342E counted along it
Sequence of cardiac potassium (hERG) channels (Q12809 whole entry): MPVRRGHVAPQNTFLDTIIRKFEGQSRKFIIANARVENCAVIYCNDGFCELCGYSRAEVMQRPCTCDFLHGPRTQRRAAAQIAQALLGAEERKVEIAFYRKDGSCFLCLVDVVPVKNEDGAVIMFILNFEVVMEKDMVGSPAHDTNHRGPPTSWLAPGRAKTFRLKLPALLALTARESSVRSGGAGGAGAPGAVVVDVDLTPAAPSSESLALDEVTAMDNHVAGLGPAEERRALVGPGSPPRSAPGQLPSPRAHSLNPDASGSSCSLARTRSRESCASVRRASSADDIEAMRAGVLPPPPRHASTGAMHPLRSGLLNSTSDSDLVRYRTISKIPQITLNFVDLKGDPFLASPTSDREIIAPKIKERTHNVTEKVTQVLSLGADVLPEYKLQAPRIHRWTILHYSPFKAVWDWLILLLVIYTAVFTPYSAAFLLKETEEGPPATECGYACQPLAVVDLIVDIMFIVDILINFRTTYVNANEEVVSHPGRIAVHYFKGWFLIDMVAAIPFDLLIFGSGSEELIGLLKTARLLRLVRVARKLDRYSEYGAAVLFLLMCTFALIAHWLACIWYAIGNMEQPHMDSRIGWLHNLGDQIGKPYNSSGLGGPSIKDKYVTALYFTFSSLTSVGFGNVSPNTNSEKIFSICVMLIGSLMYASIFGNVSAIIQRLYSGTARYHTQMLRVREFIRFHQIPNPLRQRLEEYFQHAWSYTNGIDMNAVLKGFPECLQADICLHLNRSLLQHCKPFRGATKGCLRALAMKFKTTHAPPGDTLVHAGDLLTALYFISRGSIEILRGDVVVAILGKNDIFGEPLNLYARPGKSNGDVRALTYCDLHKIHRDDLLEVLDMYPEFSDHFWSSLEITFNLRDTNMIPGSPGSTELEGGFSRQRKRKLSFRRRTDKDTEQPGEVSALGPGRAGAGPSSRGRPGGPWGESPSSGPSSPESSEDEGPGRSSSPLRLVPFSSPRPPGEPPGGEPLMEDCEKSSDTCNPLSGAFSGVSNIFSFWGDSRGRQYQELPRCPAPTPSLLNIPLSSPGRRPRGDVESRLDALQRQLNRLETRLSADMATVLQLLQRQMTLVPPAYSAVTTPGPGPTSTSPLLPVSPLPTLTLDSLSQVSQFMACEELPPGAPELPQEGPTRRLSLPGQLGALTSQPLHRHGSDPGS
Sequence of hERG (Q12809 whole entry): as above

AUC lower than S enantiomer ([1]; mice, Examples 7 and 8) | t½ shorter than S enantiomer ([1]; mice, Examples 7 and 8) | Cmax [1] | AUC [1] | AUC(0-inf) [1] | half-life [1] | clearance [1] | Vd [1] | Compound | secretion of human Z A1AT into cell supernatant (human Z A1AT) | secretion of human Siiyama A1AT into cell supernatant (human Siiyama A1AT) | inhibition at 100 µM (hERG) | IC50 [2]
2.2 fold | 2.2 fold | 15600 ng/mL | 24200 ng·h/mL | 24700 ng·h/mL | 32.4 min | 8.2 mL/min/kg | 0.38 L/kg | O=C(O)[C@@H]1CCCN(S(=O)(=O)c2ccccc2C(F)(F)F)C1 [(R)-1-((2-(Trifluoromethyl)phenyl)sulfonyl)piperidine-3-carboxylic acid] | stimulates secretion of human Z A1AT in a dose dependent manner | does not stimulate secretion of human Siiyama A1AT |  | 
 |  | 33500 ng/mL | 54200 ng·h/mL | 54400 ng·h/mL | 72 min | 4.7 mL/min/kg | 0.49 L/kg | O=C(O)[C@H]1CCCN(S(=O)(=O)c2ccccc2C(F)(F)F)C1 [(S)-1-((2-(Trifluoromethyl)phenyl)sulfonyl)piperidine-3-carboxylic acid] | stimulates secretion of human Z A1AT in a dose dependent manner | does not stimulate secretion of human Siiyama A1AT | 7% | > 100 µM
